Assay results taken from patent publication US9808448B2, “Pharmaceutical compounds and use of same in cancer and tauopathies” (THE REGENTS OF THE UNIVERSITY OF MICHIGAN, priority 2013, dated 2017).
Several values for one entry are separate records, joined by “and”; a condition that tells them apart may be missing. Equal entries are not always repeated. Entries after “also recorded” stand apart in the source; their conditions may differ.

Legend:
[1] = Solubility in dosing vehicle; type: physicochemical
Method: (§1) (A) Initial pharmacokinetics and biodistribution of YM-01 and YM-08. Compounds were suspended in buffered saline (YM-01) or 10% DMSO/saline (YM-08) and injected at 20 and 10 mg/kg, respectively. YM-08 was not soluble in saline or 10% DMSO/saline at 20 mg/kg. The levels of YM-08 in the brain at 1 hr after injection could not be accurately determined because its value was outside the calibration curve. […] Results are average from data acquired from three female mice. (C) YM-08 maintains a B/P ratio of nearly 0.25 for 18 hrs.
(§2) The initial pharmacokinetics (PK) of YM-01 and YM-08 were tested in CD1 mice. […] After a single 6.6 mg/kg dose delivered i.v., the peak brain concentration of YM-08 was 4 μg/g (FIG. 7B) and the ratio in the brain:plasma (B/P) ratio was approximately 0.25 for 18 hrs (FIG. 7C). […] It is not yet clear how much tau levels need to be reduced to achieve therapeutic effects in disease models, but the area-under-the-curve (AUCinf) for YM-08 in the brain was 0.26 μg·hr/g and the AUCinf in plasma was 13.6 μg·hr/mL.

[2] = Initial pharmacokinetics and biodistribution in CD1 mice; type: in vivo, mouse; settings: i.v., YM-01 20 mg/kg saline, YM-08 10 mg/kg 10% DMSO/saline
Method: as §1, §2

[3] = molecular target: prokaryotic Hsp70 (DnaK) binding to denatured luciferase (Escherichia coli, UniProt P0A6Y8); assay: Luciferase binding assay; type: biochemical; settings: 50 μM
Chain of prokaryotic Hsp70 (DnaK) binding to denatured luciferase (P0A6Y8 whole entry): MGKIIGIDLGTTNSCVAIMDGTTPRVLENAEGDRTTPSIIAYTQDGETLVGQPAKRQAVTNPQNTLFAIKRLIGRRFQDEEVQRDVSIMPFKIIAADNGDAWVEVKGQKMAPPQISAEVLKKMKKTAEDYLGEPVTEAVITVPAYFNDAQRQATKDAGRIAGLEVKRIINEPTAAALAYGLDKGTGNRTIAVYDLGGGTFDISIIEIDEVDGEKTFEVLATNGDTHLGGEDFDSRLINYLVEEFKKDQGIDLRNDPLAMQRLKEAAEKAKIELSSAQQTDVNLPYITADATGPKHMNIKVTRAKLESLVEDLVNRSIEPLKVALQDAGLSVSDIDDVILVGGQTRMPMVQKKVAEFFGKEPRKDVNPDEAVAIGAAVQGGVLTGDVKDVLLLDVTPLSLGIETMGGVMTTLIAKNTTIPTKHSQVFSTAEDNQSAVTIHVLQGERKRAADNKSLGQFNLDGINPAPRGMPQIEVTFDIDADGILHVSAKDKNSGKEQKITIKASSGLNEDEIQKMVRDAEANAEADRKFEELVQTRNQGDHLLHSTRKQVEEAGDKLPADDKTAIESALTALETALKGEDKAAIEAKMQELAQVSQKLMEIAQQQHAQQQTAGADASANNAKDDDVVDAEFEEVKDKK
Method: Next, the effect of chaperone functions by binding of YM-08 to Hsp70 was investigated. […] This profile is shared with other allosteric Hsp70 inhibitors. As another test of chaperone function, the effects of the compounds on the binding of Hsp70 to a misfolded protein were measured. In previous work, MKT-077 stabilized the interaction between prokaryotic Hsp70 (DnaK) and denatured luciferase. Briefly, this assay involves immobilizing unfolded luciferase in microtiter plates and measuring binding to DnaK. […] To explore whether YM-08 might also enhance binding of Hsp70 to a more physiologically relevant substrate, binding of tau to immobilized human Hsc70 was measured.
Binding of prokaryotic Hsp70 (DnaK) to denatured luciferase was measured as previously described, in e.g., Miyata, et al., J. Biomol. Screen, 15:1211-1219 (2010). Briefly, firefly luciferase (0.2 mg/mL) was proteolyzed with trypsin and immobilized in 96-well microtiter plates. After washing, the binding of luciferase to DnaK (500 nM) was measured using an anti-DnaK antibody and HRP secondary antibody. A similar strategy was used to monitor binding of human Hsc70 to tau, as previously described in Thompson, et al., ACS Chem. Biol., 7:1677-1686 (2012).

[4] = system: stress inducible Hsp72 (HSPA1); assay: Stress response in treated HeLaC3 cell lysates; type: cell-based, human
[5] = Liver microsome stability; type: in vitro ADME; settings: human, liver microsomes
[6] = system: human 4R0N tau in HeLaC3 cells; assay: Tau levels in HeLaC3 cells by Western blot; type: cell-based
Method: To determine whether YM-08 might also accelerated tau degradation, HeLaC3 cells, which stably over-express human 4R0N tau, were treated with compound. After 24 hours, the levels of phosphorylated (p396/404) tau and total tau were measured by Western blot. […] This cellular activity is not as dramatic as that of MKT-077, which reduced tau levels by >80% at 30 μM (FIG. 4D); however, reducing tau by only about 50% is predicted to provide benefits in some AD models.

human Hsc70NBD = molecular target: T1, human Hsc70NBD (Homo sapiens, UniProt P11142); assay: Biolayer interferometry (Octet Red), Hsc70NBD; type: binding; settings: immobilized biotinylated Hsc70NBD
T1 construct: made in house
T1 sequence (P11142 2-386 limits assumed): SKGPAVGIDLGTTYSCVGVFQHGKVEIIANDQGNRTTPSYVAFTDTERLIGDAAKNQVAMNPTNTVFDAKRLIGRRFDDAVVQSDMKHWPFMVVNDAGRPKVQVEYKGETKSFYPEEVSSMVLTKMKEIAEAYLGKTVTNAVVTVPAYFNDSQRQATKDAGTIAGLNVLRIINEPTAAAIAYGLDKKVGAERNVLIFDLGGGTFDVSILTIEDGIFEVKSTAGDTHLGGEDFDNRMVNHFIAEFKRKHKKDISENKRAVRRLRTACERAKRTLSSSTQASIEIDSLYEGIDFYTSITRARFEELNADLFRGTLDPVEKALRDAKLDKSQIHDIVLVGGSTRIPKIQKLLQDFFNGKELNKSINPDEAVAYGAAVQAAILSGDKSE
Method: Binding of MKT-077 analogs to immobilized Hsp70 was evaluated using a competitive ELISA. In this established assay, a biotinylated version of MKT-077 is bound to immobilized human Hsc70 (HSPA8) and potential competitors are tested for their ability to block the interaction. […] As further controls, the truncated compounds YM-02, YM-03, YM-04 and YM-07 were tested.
Biotinylated human Hsc70NBD or full length Hsp72 were first immobilized on super streptavidin biosensors (ForteBio, 18-5057) as follows: biosensors were soaked with MG buffer (100 mM Tris base, 20 mM KCl, 6 mM MgCl2, 0.01% Triton X-100, pH 7.4) for 10 min before moving them to wells either containing 200 μL […] biotinylated proteins or […] biocytin for 60 min. The free streptavidin sites were subsequently quenched with […] biocytin for 10 min. The biosensors were washed with MG buffer for 5 min prior to beginning the binding experiments. The association and disassociation steps were carried out in MG buffer with a constant 10% DMSO concentration. All steps were performed at room temperature and with 1000 rpm rotary shaking. […] The apparent affinities of YM-08 for Hsc70NBD and Hsp72 were calculated from both equilibrium measurements and global fits of the kon and koff values, yielding similar values.

MEF (C57BL/6) = assay: Cell survival, MEF; type: cell-based; settings: Mus musculus; tau activity screen table; read-out: MEF IC50

## CCn1c(=O)/c(=C2\Sc3ccccc3N2C)s/c1=C\c1ccccn1 [YM-08, (2Z,5E)-3-ethyl-5-(3-methylbenzo[d]thiazol-2(3H)-ylidene)-2-(pyridin-2-ylmethylene)thiazolidin-4-one]
[1]
  solubility in saline or 10% DMSO/saline: not soluble; also recorded: only marginally soluble
[2]; 0.16 and 1 hrs
  kidney distribution: reduced retention in the kidney
[2]; 0.16 hrs
  brain penetration: abundant in the brain
[3]
  enhancement of DnaK binding to denatured luciferase: about 30%
[4]
  stress response (Hsp72 levels): did not induce a stress response
[5]
  half-life: 2 to 4 min
[5]; figure legend
  half-life: ~4 min
[6]
  anti-tau activity in cells: reduced phospho (p396/404) and total tau
[6]; 30 μM, 24 hours
  decrease of pS396/404 tau level: about 40%
  decrease of total tau level: about 60%
Human Hsc70NBD
  Kd: ~2.3 µM and ~4 µM
MEF (C57BL/6)
  IC50: 4.2 ± 0.24 µM
